In one data set the test system is Escherichia. As to the kind of experiment: Antibacterial activity against Escherichia after 18 to 48 hrs by serial dilution method. Format: functional.
The subject of data set [1] is Mus musculus. As to the kind of experiment: Toxicity in ip dosed ICR mouse assessed as decreased in mobility after 3 hrs. Format: organism-based. To be noted: in vivo.
For data set [2], the species on record is Homo sapiens. The experiment in a line: Cytotoxicity against human neuronal tumor cells at 100 ug/ml by MTT assay. Format: functional, cell-based. In general terms: Tetrazolium assays rely on reduction of a dye to a coloured formazan, in cell work by metabolically active cells.
The subject of a further data set is Micrococcus. As to the kind of experiment: Antibacterial activity against Micrococcus after 18 to 48 hrs by serial dilution method. Format: functional.
The next data set concerns Shigella. As to the kind of experiment: Antibacterial activity against Shigella after 18 to 48 hrs by serial dilution method. Format: functional.
The next data set concerns Staphylococcus. As to the kind of experiment: Antibacterial activity against Staphylococcus after 18 to 48 hrs by serial dilution method. Format: functional.
The species named for data set [3] is Mus musculus. As to the kind of experiment: Cytotoxicity against mouse neuronal tumor cells at 100 ug/ml by MTT assay. Format: functional, cell-based.
The subject of a further data set is Salmonella. As to the kind of experiment: Antibacterial activity against Salmonella after 18 to 48 hrs by serial dilution method. Format: functional.
The subject of another data set is Pseudomonas. The experiment in a line: Antibacterial activity against Pseudomonas after 18 to 48 hrs by serial dilution method. Format: functional.
Another data set concerns Candida. As to the kind of experiment: Antifungal activity against Candida after 18 to 48 hrs by serial dilution method. Format: functional.
The next data set has as its system Serratia. The experiment in a line: Antibacterial activity against Serratia after 18 to 48 hrs by serial dilution method. Format: functional.
Data set [4] deals with Mus musculus. As to the kind of experiment: Toxicity in po dosed ICR mouse assessed as decreased in mobility after 3 hrs. Format: organism-based. Particulars: in vivo.
The species entered for data set [5] is Homo sapiens. As to the kind of experiment: Cytotoxicity against human astrocytoma cells at 100 ug/ml by MTT assay. Format: functional, cell-based.
Data set [6] is described as follows: Antibacterial activity against Cryptococcus after 18 to 48 hrs by serial dilution method. Format: functional.
Data set [7] can be described thus: Cytotoxicity against mouse DRG neuron at 100 ug/ml by MTT assay.
A further data set relates to Saccharomyces. As to the kind of experiment: Antifungal activity against Saccharomyces after 18 to 48 hrs by serial dilution method. Format: functional.
A further data set has as its system Corynebacterium. The experiment in a line: Antibacterial activity against Corynebacterium after 18 to 48 hrs by serial dilution method. Format: functional.
In data set [8] the test system is Mus musculus. As to the kind of experiment: Induction of rhabdomyolysis in ICR mouse assessed as serum creatine […] level at 5 mg/kg, po after 4 hrs by spectrophotometry (reference value: 240 +/- 34 U/L). Format: organism-based. Set-up: dose 5 mg/kg, route oral. Particulars: in vivo.
The next data set concerns Mycobacterium. The experiment in a line: Antibacterial activity against Mycobacterium after 18 to 48 hrs by serial dilution method. Format: functional.
For a further data set, the system named is Bacillus. As to the kind of experiment: Antibacterial activity against Bacillus after 18 to 48 hrs by serial dilution method. Format: functional.
Data set [9] is described as follows: Chemical stability of the compound at 20 degC assessed as half life. Format: physicochemical.
For another data set, the system named is Proteus. As to the kind of experiment: Antibacterial activity against Proteus after 18 to 48 hrs by serial dilution method. Format: functional.
Data set [10] is described as follows: Cytotoxicity against mouse hyphalamic cells at 100 ug/ml by MTT assay. Format: cell-based.
In another data set the test system is sarcoma. As to the kind of experiment: Cytotoxicity against human synovial sarcoma cells at 100 ug/ml by MTT assay. Format: functional, cell-based.
The subject of the next data set is Enterococcus. As to the kind of experiment: Antibacterial activity against Enterococcus after 18 to 48 hrs by serial dilution method. Format: functional.
The next data set relates to Klebsiella. As to the kind of experiment: Antibacterial activity against Klebsiella after 18 to 48 hrs by serial dilution method. Format: functional.
Data set [11] is described as follows: Toxicity in po dosed mouse. Format: organism-based. Particulars: in vivo.
The next data set deals with Rattus norvegicus. As to the kind of experiment: (§1) Toxicity in po dosed rat. Format: organism-based. To be noted: in vivo.
A short description of data set [12]: as §1. Format: organism-based. Particulars: in vivo.
The subject of data set [13] is Mus musculus. The experiment in a line: Induction of rhabdomyolysis in ICR mouse assessed as serum creatine […] level at 70 mg/kg, po after 4 hrs by spectrophotometry (reference value: 240 +/- 34 U/L). Format: organism-based. Set-up: dose 70 mg/kg, route oral. To be noted: in vivo.

Where only a bound is given, the exact number is not on record here.

A word on the MIC: it is the lowest concentration that inhibits growth of the organism. A high value points to a need for much substance. As usually defined, the half-life is how long it takes for the measured level to halve. With `O=C(O)C1C=C1`, the MIC against Escherichia, against Micrococcus, against Shigella, against Staphylococcus, against Salmonella and with Pseudomonas was above 100 mg/L each time. Further, the MIC (in the data set with Candida; with Serratia; in data set [6]; with Saccharomyces; in the data set with Corynebacterium; in the data set with Mycobacterium) was above 100 mg/L each time. In addition, the MIC against Bacillus, in the data set on Proteus, with Enterococcus and against Klebsiella was above 100 mg/L each time. Also, the LD100 in the data set on Mus musculus [1] and in the data set with Mus musculus [4] was 2.5 mg/kg in each case. The Activity result is “Not toxic” in the data set filed under Homo sapiens [2]; “Not toxic” in the data set listed under Mus musculus [3]; “Not toxic” in the data set listed under Homo sapiens [5]; “Non-toxic” in data set [7]; 3441 U/L in the data set with Mus musculus [8]; “Non-toxic” in data set [10]. For the same molecule, the Activity result with sarcoma is “Not toxic”. Moreover, the half-life in data set [9] was 20 h.
What is called LD50 is the dose expected to kill half of the subjects tested. `CC(=O)O` [ACETIC ACID] returned a median lethal dose (LD50) in data set [11] of 4960 mg/kg. Also, the LD100 in the data set on Mus musculus [4] came to 2500 mg/kg.
As to `CCCC(=O)O` [BUTYRIC ACID], the LDLO in the data set on Rattus norvegicus was found to be 500 mg/kg. Further, the LD50 in data set [12] is 8790 mg/kg. In the data set with Mus musculus [4], the LD100 worked out at 5000 mg/kg.
In the case of `CC1=C(C)C1C(=O)O`, the LD100 with Mus musculus [4] is above 250 mg/kg.
`C/C=C/C(=O)O` [CROTONIC ACID] had a 50% lethal dose (LD50) in [11] of 400 mg/kg. For the same molecule, the LD100 with Mus musculus [4] came to 2500 mg/kg.
Regarding `C#CC(=O)O` [PROPIOLIC ACID], in data set [11], the LD50 is 100 mg/kg.
On to `CC1=CC1C(=O)O` (centres undefined), for which, in the data set on Mus musculus [4], the LD100 amounted to 50 mg/kg.
Consider `Nc1ccc(N)cc1`, for which the Activity with Mus musculus [13] amounted to 397 U/L.
In data set [11], `CCC(=O)O` [PROPIONIC ACID] displayed an LD50 of 5100 mg/kg.
The same measure, in the same setting: the value for `C=C(C)C(=O)O` [METHACRYLIC ACID] was 1600 mg/kg.
